The data set is described as follows: physchem. The note with it: aqueous with cosolvent or surfactant or cyclodextrin.

≈ marks a conversion by molar mass, not a printed value.

A word on the solubility: it is the concentration that dissolves in the medium under given conditions. The low end stands for little dissolved substance, the high end for much dissolved substance. As for `CC1=C(/C=C/C(C)=C/C=C/C(C)=C/C=C/C=C(C)/C=C/C=C(C)/C=C/C2=C(C)CCCC2(C)C)C(C)(C)CCC1` [β-carotene], the solubility is roughly 50 µg/mL (≈ 93.1 µM).

Values taken from patent US9943490B2, “Composite flash-precipitated nanoparticles” (The Trustees of Princeton University, priority 2008, dated 2018).
